Laboratory results from patent US20030088061A1, “Materials and methods to modulate ligand binding/enzymatic activity of alpha/beta proteins containing an allosteric regulatory site” (priority 2000, published 2003).

How the values were obtained:
Format in all cases: cell-based
αLβ2 = biological target: T1, αLβ2 (Homo sapiens, UniProt P05107+P20701); experiment: JY/αLβ2 cell adhesion to ICAM-1/Ig; conditions: PMA-treated JY cells
T1 construct: endogenous in cells; host or cells: JY cells
Description: (§1) To assess the selectivity of each compound, an IC50 value was determined for additional binding partner compounds JY/αVβ3 and vitronectin, JY/α4β1 and VCAM/Ig, JY/αdβ2 and VCAM, JY/[…] and ICAM-1, JY/αMβ2 and iC3b, and JY/α4β7 and MAdCAM-1.
(§2) For each IC50 assay, 50 μl of the ligand diluted in 50 mM bicarbonate buffer (pH 9.6) was dispensed per well of an Immulon-4 plate. A single plate was used to test two different ligands, each in triplicate, The coating concentration for the various ligands was as follows: VCAM-1/Ig at 2.0 μg/ml; ICAM-1/Ig at 5.0 μg/ml; vitronectin at 0.5 μg/ml; MAdCAM-1/Ig at 3.0 μg/ml, and iC3b at 5.0 μg/ml. The capture antibody, e.g. anti-CD18 monoclonal antibody TS1/22, was added at a concentration of 10 μg/ml in 50 μl/well. Ligand-coated plates were covered and stored overnight at 4° C. The following day, the contents of each well was decanted, and each plate was washed three times with 200 μl/well D-PBS. The plate was then blocked by the addition of 300 μl/well of 1% BSA/D-PBS solution. Each plate was again covered and incubated at room temperature for at least 1 hour.
(§3) Prior to transfer to the adhesion plate, the compounds were initially diluted by transferring 4.2 μl of the diluted compounds to a 96-well deepwell titer plate containing 0.7 ml/well of RPMI 1640, 0.1% BSA, and 3 ng/ml PMA (Sigma Corp., St. Louis, Mo.) pre-warmed to 37° C. The 1% BSA/D-PBS blocking solution was decanted from the 96-well Immulon-4 plates and replaced with 0.2 ml of diluted compound. For each 96-well plate to be screened, approximately 8×10^6 cells were collected by centrifugation and resuspended in adhesion media (RPMI 1640 containing 0.1% BSA) to a final concentration of 10^6/ml. To prevent PMA-dependent homotypic aggregation in the adhesion assay, the anti-CD18 antibody 22F12C (ICOS Corp., Bothell, Wash.) was added to the cell suspensions to a final concentration of 10 μg/ml, and the cells were incubated at 37° C. for 15 min. This antibody was not added to CD18-dependent adhesion assays involving JY/αLβ2, JY/αdβ2 or JY/αMβ2 and their corresponding ligands ICAM-1, VCAM-1, or iC3b.
(§4) The adhesion assay was initiated by addition of 100 μl of the cell suspension to each well of the Immulon-4 plate. […] Adherent cells were quantitated by determining the absorbance at 570 nm in a plate spectrophotometer. The percentage of cell binding was determined by using the mean values for each triplicate in a given assay and the formula below. […]
(§5) The four compounds Cmpd K, Cmpd W, Cmpd Z, Cmpd D identified in the primary screen were selected for further specificity profiling, whereby their IC50 values were determined in additional integrin-dependent adhesive events. […]

αVβ3 = biological target: T2, αVβ3 (Homo sapiens, UniProt P05106+P06756); experiment: JY/αVβ3 cell adhesion to vitronectin; conditions: PMA-treated JY cells; read-out: VN αVβ3 IC50
T2 construct: endogenous in cells; host or cells: JY cells
Description: as §1, §2
Prior to transfer to the adhesion plate, the compounds were initially diluted by transferring 4.2 μl of the diluted compounds to a 96-well deepwell titer plate containing 0.7 ml/well of RPMI 1640, 0.1% BSA, and 3 ng/ml PMA (Sigma Corp., St. Louis, Mo.) pre-warmed to 37° C. The 1% BSA/D-PBS blocking solution was decanted from the 96-well Immulon-4 plates and replaced with 0.2 ml of diluted compound. […]
as §4, §5

α4β1 = α4β1 (Homo sapiens, UniProt P05556+P13612); experiment: JY/α4β1 cell adhesion to VCAM-1/Ig; design: host or cells: JY cells; conditions: PMA-treated JY cells
Sequence of α4β1 (P13612 34-1032): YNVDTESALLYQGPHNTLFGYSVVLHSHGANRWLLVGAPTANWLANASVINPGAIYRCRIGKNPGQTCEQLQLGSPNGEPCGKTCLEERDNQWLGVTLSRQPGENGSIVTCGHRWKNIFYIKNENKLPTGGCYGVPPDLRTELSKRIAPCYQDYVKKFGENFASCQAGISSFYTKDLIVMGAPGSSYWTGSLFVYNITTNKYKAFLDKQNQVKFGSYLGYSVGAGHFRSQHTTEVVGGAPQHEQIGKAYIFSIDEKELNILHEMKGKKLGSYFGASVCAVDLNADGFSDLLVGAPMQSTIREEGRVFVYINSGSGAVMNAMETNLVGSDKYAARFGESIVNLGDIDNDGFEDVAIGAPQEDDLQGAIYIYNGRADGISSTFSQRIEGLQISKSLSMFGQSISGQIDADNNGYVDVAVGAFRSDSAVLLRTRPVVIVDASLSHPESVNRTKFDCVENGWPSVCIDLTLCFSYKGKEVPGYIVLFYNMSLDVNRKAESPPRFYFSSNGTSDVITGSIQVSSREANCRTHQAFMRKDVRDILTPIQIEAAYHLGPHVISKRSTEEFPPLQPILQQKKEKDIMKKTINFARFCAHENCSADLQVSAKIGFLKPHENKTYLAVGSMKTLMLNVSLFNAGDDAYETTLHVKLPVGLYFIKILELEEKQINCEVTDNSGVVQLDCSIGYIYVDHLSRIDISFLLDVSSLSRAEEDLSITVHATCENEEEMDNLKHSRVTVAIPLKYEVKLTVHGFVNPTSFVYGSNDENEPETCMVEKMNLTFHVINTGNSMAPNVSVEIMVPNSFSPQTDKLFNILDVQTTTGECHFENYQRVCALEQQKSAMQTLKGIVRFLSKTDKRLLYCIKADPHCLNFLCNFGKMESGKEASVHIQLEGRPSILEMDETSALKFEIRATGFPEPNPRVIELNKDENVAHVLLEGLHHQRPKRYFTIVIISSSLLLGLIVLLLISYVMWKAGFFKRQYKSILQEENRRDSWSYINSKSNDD
Sequence of α4β1 (P05556 21-798): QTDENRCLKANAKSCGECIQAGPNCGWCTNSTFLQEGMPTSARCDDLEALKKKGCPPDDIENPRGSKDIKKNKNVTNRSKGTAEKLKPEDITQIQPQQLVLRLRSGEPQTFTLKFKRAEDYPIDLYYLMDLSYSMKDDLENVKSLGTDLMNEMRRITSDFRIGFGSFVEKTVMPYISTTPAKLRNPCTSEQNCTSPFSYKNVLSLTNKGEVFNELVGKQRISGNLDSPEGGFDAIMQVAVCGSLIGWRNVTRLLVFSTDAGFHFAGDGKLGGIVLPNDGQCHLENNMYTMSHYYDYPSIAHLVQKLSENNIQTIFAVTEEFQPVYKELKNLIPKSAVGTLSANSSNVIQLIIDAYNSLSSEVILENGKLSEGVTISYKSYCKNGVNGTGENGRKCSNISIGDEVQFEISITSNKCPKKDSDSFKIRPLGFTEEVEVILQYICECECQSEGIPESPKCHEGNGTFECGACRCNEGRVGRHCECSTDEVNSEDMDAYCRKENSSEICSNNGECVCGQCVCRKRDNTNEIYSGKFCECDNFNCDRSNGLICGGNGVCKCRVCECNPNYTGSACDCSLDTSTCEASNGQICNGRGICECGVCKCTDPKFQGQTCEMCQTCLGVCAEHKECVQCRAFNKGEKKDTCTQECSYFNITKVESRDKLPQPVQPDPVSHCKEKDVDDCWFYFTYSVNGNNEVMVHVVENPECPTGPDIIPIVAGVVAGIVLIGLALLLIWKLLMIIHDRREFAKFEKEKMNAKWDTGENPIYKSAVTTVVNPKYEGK
Description: as §1, §2, §3, §4, §5

αdβ2 = biological target: T3, αdβ2 (Homo sapiens, UniProt P05107+Q13349); experiment: JY/αdβ2 cell adhesion to VCAM; conditions: PMA-treated JY cells
T3 construct: expressed in transfected cells; host or cells: JY cells, plasmid pMHneo/aD
T3 sequence (Q13349 18-1161): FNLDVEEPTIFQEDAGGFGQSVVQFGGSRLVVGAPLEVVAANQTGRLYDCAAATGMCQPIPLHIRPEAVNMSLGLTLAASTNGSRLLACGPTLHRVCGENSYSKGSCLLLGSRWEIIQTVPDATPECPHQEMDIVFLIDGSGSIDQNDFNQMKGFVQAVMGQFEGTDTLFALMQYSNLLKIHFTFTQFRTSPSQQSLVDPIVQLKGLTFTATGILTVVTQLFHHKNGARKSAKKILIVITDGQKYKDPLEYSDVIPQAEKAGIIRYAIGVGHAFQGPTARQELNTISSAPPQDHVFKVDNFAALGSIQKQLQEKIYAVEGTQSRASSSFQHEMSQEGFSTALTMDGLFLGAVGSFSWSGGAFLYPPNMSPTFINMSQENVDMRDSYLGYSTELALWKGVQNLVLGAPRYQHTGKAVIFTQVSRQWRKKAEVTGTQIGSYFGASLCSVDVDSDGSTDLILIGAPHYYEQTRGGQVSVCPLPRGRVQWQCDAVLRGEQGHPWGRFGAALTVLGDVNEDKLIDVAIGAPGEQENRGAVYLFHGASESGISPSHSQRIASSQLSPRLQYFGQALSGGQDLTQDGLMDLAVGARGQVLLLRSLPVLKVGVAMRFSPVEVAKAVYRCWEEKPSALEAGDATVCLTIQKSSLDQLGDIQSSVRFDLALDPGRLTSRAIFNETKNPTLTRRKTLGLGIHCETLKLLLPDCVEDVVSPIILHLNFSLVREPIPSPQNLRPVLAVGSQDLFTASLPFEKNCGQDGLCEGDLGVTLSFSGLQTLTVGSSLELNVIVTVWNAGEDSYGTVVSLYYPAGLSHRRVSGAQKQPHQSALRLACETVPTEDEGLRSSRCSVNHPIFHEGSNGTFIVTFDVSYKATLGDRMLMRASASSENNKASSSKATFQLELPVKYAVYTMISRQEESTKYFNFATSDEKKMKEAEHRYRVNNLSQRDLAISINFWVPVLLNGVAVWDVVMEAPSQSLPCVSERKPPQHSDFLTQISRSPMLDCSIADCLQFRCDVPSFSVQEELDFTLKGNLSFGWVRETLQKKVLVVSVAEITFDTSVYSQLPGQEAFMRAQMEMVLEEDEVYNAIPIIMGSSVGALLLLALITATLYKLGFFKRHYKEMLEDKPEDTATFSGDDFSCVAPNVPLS
T3 sequence (P05107 23-769 partner): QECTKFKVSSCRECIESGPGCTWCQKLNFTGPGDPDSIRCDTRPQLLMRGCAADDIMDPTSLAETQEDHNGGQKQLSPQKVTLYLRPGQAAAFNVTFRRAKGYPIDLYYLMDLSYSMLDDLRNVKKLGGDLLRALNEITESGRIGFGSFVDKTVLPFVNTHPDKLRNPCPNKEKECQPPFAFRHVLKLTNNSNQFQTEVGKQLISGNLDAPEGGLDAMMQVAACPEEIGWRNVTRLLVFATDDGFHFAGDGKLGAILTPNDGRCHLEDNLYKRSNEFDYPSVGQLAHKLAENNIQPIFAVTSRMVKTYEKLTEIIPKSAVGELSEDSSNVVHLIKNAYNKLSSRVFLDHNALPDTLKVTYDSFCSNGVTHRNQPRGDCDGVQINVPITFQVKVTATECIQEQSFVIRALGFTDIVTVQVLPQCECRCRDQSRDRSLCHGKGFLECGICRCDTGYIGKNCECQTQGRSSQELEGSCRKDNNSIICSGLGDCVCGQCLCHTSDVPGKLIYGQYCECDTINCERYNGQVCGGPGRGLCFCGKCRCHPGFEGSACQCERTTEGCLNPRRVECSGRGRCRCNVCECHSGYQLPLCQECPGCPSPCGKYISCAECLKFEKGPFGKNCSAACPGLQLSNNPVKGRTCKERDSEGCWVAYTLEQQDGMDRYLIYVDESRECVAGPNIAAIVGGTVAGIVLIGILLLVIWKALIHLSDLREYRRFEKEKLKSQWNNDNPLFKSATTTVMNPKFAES
Description: as §1, §2, §3, §4, §5

T1 sequence (P20701 26-1170): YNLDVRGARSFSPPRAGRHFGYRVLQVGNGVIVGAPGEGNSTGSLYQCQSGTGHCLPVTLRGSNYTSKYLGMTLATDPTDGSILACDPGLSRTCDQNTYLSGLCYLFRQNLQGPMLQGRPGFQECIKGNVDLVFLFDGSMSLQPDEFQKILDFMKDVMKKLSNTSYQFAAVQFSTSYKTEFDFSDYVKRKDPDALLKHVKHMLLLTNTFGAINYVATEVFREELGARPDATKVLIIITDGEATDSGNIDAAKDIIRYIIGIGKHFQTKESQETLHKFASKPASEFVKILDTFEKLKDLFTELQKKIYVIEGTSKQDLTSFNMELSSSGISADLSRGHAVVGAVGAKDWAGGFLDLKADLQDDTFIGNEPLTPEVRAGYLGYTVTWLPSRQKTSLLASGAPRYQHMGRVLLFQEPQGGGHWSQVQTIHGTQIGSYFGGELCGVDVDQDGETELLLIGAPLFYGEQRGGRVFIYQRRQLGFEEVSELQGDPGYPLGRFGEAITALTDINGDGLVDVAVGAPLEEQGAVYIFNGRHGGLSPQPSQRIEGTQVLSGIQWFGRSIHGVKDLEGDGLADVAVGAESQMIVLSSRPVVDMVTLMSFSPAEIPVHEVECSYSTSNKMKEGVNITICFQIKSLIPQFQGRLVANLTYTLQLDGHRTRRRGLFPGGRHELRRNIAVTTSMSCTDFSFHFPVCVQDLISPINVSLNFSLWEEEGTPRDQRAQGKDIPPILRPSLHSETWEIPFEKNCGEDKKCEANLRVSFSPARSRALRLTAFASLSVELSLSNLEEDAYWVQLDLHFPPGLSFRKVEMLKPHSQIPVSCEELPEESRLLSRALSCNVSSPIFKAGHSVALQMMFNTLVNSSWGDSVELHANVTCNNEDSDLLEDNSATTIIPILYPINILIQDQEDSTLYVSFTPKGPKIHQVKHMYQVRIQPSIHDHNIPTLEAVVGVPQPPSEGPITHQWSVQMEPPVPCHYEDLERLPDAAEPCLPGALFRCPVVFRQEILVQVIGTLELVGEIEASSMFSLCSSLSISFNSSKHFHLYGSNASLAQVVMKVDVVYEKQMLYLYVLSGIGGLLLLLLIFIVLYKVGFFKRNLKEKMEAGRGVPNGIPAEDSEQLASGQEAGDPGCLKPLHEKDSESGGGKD
T1 sequence (P05107 23-769 partner): as the sequence (P05107 23-769 partner) above

Row | IC50 (αLβ2) [µM] | IC50 (αVβ3) [µM] | IC50 (α4β1) [µM] | IC50 (αdβ2) [µM] | Compound
1 | 28 | 4 | > 40 | > 40 | CC(=O)Oc1ccccc1C(=O)n1c(-c2ccccc2)cc2ccccc21 [Cmpd D]
2 | 11 | 6 | > 40 | > 40 | O=C(NCc1cccnc1)c1ccccc1C(=O)Nc1sc2ccccc2c1Cl [Cmpd K]
3 | 30 | 8 | > 40 | > 40 | Nc1ccc(Sc2ccc(NC(=O)CCc3ccccc3)cc2)c(Cl)c1 [Cmpd W]
4 | 20 |  | > 40 | > 40 | CC(CN(C)C)NCc1ccccc1Sc1ccc(C(C)(C)C)cc1 (stereo not drawn) [Cmpd Z]
